Results as given in patent US8431596B2 (Cancer Research Technology Limited, priority 2007, dated 2013).
Several values for one entry are separate records, joined by “and”; a condition that tells them apart may be missing. Equal values may be shown once.

Molecular target: T1, AXL (human catalytic domain) (Homo sapiens, UniProt P30530)
T1 construct: purchased Upstate Ltd. 14-512
T1 sequence (P30530 473-894): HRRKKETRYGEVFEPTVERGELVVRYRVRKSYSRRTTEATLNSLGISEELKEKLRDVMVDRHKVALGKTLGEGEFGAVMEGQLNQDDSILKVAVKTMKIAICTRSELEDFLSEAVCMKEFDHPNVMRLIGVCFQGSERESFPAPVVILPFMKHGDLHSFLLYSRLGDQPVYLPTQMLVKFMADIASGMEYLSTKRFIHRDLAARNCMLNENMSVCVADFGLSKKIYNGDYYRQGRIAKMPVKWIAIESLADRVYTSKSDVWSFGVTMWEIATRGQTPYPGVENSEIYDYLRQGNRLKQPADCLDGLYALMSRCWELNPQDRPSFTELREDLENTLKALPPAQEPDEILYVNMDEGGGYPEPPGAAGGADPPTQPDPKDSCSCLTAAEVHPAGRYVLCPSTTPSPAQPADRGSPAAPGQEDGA
Experiment: AXL (human catalytic domain) Enzyme Activity Assay (IMAP fluorescence polarisation)
Assay type: biochemical
Summary of the method: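 IMAP FP readout (Ex485/Em535, after overnight binding) measured inhibition of the human AXL catalytic domain (aa473-894, 15 nM final) acting on 100 nM 5FAM-CSK-tide at 150 μM ATP, equal to KM. Reactions ran 60 min at room temperature in pH 7.0 HEPES buffer; IC50 from 10-point curves.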

[1] = further data set (WW-001 through WW-169, XX-001 through XX-469, YY-001 through YY-016, ZZ-001 through ZZ-003), 150 μM ATP
[2] = first data set, recombinant AXL isoform 1 aa473-894, 150 μM ATP

| Structure (SMILES) | IC50 [1] | IC50 [2] |
| --- | --- | --- |
| c1ccc(-c2cccc3nc(Nc4ccc(OCCN5CCCC5)cc4)nn23)cc1 [XX-159] | 100 to 1000 nM | – |
| FC(F)(F)c1ccccc1COc1cccc(-c2cccc3nc(Nc4ccc(OCCN5CCCC5)cc4)nn23)c1 [XX-402] | 1000 to 10000 nM | – |
| O=S(=O)(CCC(F)(F)F)n1cc(-c2cccc3nc(Nc4ccc(OCCN5CCCC5)cc4)nn23)cn1 [XX-382] | ≤ 100 nM | – |
| CCCCCCS(=O)(=O)n1cc(-c2cccc3nc(Nc4ccc(OCCN5CCCC5)cc4)nn23)cn1 [XX-379] | 100 to 1000 nM | – |
| Clc1ccc(-c2cccc3nc(Nc4ccc(OCCN5CCCC5)cc4)nn23)cc1 [XX-211] | ≤ 100 nM | – |
| O=C(CCN1CCCC1)Nc1ccc(Nc2nc3cccc(-c4ccc5c(c4)OCCO5)n3n2)cc1 [XX-104] | 100 to 1000 nM | – |
| CN(C)CCNC(=O)c1ccc(-c2cccc3nc(NC(=O)C4CC4)nn23)cc1 [WW-009, 4-[2-(Cyclopropanecarbonyl-amino)-[1,2,4]triazolo[1,5-a]pyridin-5-yl]-N-(2-dimethylamino-ethyl)-benzamide] | 1000 to 10000 nM | 1000 to 10000 nM |
| CCCn1cc(-c2cccc3nc(NC(=O)C4CC4)nn23)cn1 [WW-124, Cyclopropanecarboxylic acid [5-(1-propyl-1H-pyrazol-4-yl)-[1,2,4]triazolo[1,5-a]pyridin-2-yl]-amide] | 1000 to 10000 nM | 1000 to 10000 nM |
| O=C(CCN1CCCC1)Nc1cccc(Nc2nc3cccc(-c4ccc5c(c4)OCCO5)n3n2)c1 [XX-109] | 100 to 1000 nM | – |
| O=C(Nc1cccc(Cl)c1)Nc1cccc(-c2cccc3nc(Nc4ccc(OCCN5CCCC5)cc4)nn23)c1 [XX-176] | 100 to 1000 nM | – |
| CC(Oc1ccc(Nc2nc3cccc(-c4ccc5c(c4)OCCO5)n3n2)cc1)C(N)=O (centres unmarked) [XX-072] | 100 to 1000 nM | < 1000 nM |
| c1cc(-c2ccc3occc3c2)n2nc(Nc3ccc(OCCN4CCCC4)cc3)nc2c1 [XX-020] | ≤ 100 nM | < 1000 nM |
| CN(C)c1ccc(-c2cccc3nc(NC(=O)C4CC4)nn23)cn1 [WW-036] | 1000 to 10000 nM | 1000 to 10000 nM |
| c1csc(Cn2cc(-c3cccc4nc(Nc5ccc(OCCN6CCCC6)cc5)nn34)cn2)c1 [XX-275] | 100 to 1000 nM | – |
| CC(C)Cn1cc(-c2cccc3nc(Nc4ccc(OCCN5CCCC5)cc4)nn23)cn1 [XX-274] | 1000 to 10000 nM | – |
| O=C(Nc1nc2cccc(NCc3ccccc3Cl)n2n1)C1CC1 [WW-082] | 1000 to 10000 nM | 1000 to 10000 nM |
| O=C(Nc1nc2cccc(-c3ccc(Oc4ccccc4)cc3)n2n1)C1CC1 [WW-162] | 1000 to 10000 nM | 1000 to 10000 nM |
| O=S(=O)(Cc1cccc(Cl)c1)n1cc(-c2cccc3nc(Nc4ccc(OCCN5CCCC5)cc4)nn23)cn1 [XX-288] | 100 to 1000 nM | – |
| c1cc(-c2ccc3c(c2)OCCO3)n2nc(Nc3ccnc(OCCN4CCCCC4)c3)nc2c1 [XX-101] | ≤ 100 nM | – |
| Cc1cc(Nc2nc3cccc(-c4ccc5c(c4)OCCO5)n3n2)ccc1OCC(N)=O [XX-071] | 1000 to 10000 nM | 1000 to 10000 nM |
| Cc1cccc(-c2cccc3nc(NC(=O)C4CC4)nn23)c1 [WW-034] | 1000 to 10000 nM | 1000 to 10000 nM |
| COc1ccc(-c2cccc3nc(Nc4ccc(OCCN5CCCCC5)cc4)nn23)cc1 [XX-019] | ≤ 100 nM | < 1000 nM |
| c1coc(-c2ccc(-c3cccc4nc(Nc5ccc(OCCN6CCCC6)cc5)nn34)cc2)c1 [XX-188] | 100 to 1000 nM | – |
| CCCCCS(=O)(=O)n1cc(-c2cccc3nc(Nc4ccc(OCCN5CCCC5)cc4)nn23)cn1 [XX-384] | 100 to 1000 nM | – |
| c1cc(-c2ccc3c(c2)OCCO3)n2nc(Nc3ccc(SCCN4CCCC4)cc3)nc2c1 [XX-226] | 100 to 1000 nM | – |
| CCN(CC)CCC(=O)Nc1cccc(Nc2nc3cccc(-c4ccc5c(c4)OCCO5)n3n2)c1 [XX-124] | 100 to 1000 nM | – |
| CNCCCOc1cccc(Nc2nc3cccc(-c4ccc5c(c4)OCCO5)n3n2)c1 [XX-069] | ≤ 100 nM | < 1000 nM |
| c1ccc(-c2cc(CNc3cccc(-c4cccc5nc(Nc6ccc(OCCN7CCCC7)cc6)nn45)c3)no2)cc1 [XX-445] | 100 to 1000 nM | – |
| NCCSc1ccc(Nc2nc3cccc(-c4ccc5c(c4)OCCO5)n3n2)cc1 [XX-108] | ≤ 100 nM | – |

Next, values leading:

| IC50 [1] | IC50 [2] | Structure (SMILES) |
| --- | --- | --- |
| 1000 to 10000 nM | – | c1cc(-c2ccc3c(c2)OCCO3)n2nc(Nc3cnc(OCCN4CCCCC4)nc3)nc2c1 [XX-098] |
| 1000 to 10000 nM | 1000 to 10000 nM | O=C(Nc1nc2cccc(-c3cnn(Cc4ccccc4)c3)n2n1)C1CC1 [WW-105] |
| ≤ 100 nM | < 1000 nM | CNCCOc1cccc(Nc2nc3cccc(-c4ccc5c(c4)OCCO5)n3n2)c1 [XX-081] |
| 1000 to 10000 nM | 1000 to 10000 nM | CNc1ccc(-c2cccc3nc(NC(=O)C4CC4)nn23)cc1 [WW-120, Cyclopropanecarboxylic acid [5-(4-methylamino-phenyl)-[1,2,4]triazolo[1,5-a]pyridin-2-yl]-amide] |
| ≤ 100 nM | – | CN(C(=O)CN1CCCC1)c1ccc(Nc2nc3cccc(-c4ccc5c(c4)OCCO5)n3n2)cc1 [XX-153] |
| 1000 to 10000 nM | 1000 to 10000 nM | CN(C(=O)OC(C)(C)C)c1ccc(-c2cccc3nc(NC(=O)C4CC4)nn23)cc1 [WW-119, {4-[2-(cyclopropanecarbonyl-amino)-[1,2,4]triazolo[1,5-a]pyridin-5-yl]-phenyl}-methyl-carbamic acid tert-butyl ester] |
| ≤ 100 nM | – | CC(C(=O)Nc1cccc(Nc2nc3cccc(-c4ccc5c(c4)OCCO5)n3n2)c1)N1CCCC1 (centres unmarked) [XX-136] |
| 1000 to 10000 nM | 1000 to 10000 nM | O=C(Nc1nc2cccc(-c3ccc4c(c3)OCCCO4)n2n1)C1CC1 [WW-144] |
| 1000 to 10000 nM | < 1000 nM and 114 nM | COc1ccc(-c2cccc3nc(Nc4ccc(OCCNCc5ccccc5)cc4)nn23)cc1 |
| 1000 to 10000 nM | – | CN1CCN(CCC(=O)Nc2nc3cccc(-c4ccc5c(c4)OCCO5)n3n2)CC1 [WW-169] |
| 100 to 1000 nM | – | O=C(Cn1cc(-c2cccc3nc(Nc4ccc(OCCN5CCCC5)cc4)nn23)cn1)NCc1ccccc1 [XX-433] |
| 1000 to 10000 nM | 1000 to 10000 nM | O=C(Nc1nc2cccc(-c3cccc(Cl)c3)n2n1)C1CC1 [WW-004, Cyclopropanecarboxylic acid [5-(3-chloro-phenyl)-[1,2,4]triazolo[1,5-a]pyridin-2-yl]-amide] |
| 100 to 1000 nM | – | CS(=O)(=O)Nc1ccc(-c2cccc3nc(Nc4ccc(OCCN5CCCC5)cc4)nn23)cc1 [XX-253] |
| 100 to 1000 nM | – | COc1cccc(CS(=O)(=O)n2cc(-c3cccc4nc(Nc5ccc(OCCN6CCCC6)cc5)nn34)cn2)c1 [XX-289] |
| 100 to 1000 nM | – | c1cc(-c2cnn(CC3CCCO3)c2)n2nc(Nc3ccc(OCCN4CCCC4)cc3)nc2c1 (centres unmarked) [XX-344] |
| ≤ 100 nM | – | CCN(CC)CCOc1c(C)cc(Nc2nc3cccc(-c4ccc(OC)cc4)n3n2)cc1C [XX-416] |
| ≤ 100 nM | – | Clc1ccc(Cn2cc(-c3cccc4nc(Nc5ccc(OCCN6CCCC6)cc5)nn34)cn2)cc1 [XX-304] |
| 100 to 1000 nM | – | Cc1cc(-c2ccc3c(c2)OCCO3)n2nc(Nc3ccc(OCCN4CCCC4)cc3)nc2c1 [XX-311, [5-(2,3-Dihydro-benzo[1,4]dioxin-6-yl)-7-methyl-[1,2,4]triazolo[1,5-a]pyridin-2-yl]-[4-(2-pyrrolidin-1-yl-ethoxy)-phenyl]-amine] |
| 100 to 1000 nM | – | c1ccc(Cn2cc(-c3cccc4nc(Nc5ccc(OCCCN6CCCCC6)cc5)nn34)cn2)cc1 [XX-423] |
| 100 to 1000 nM | – | COC(=O)c1ccc(-c2cccc3nc(Nc4ccc(OCCN5CCCC5)cc4)nn23)cc1 [XX-199] |
| 1000 to 10000 nM | – | Cc1cccc(CNc2cccc(-c3cccc4nc(Nc5ccc(OCCN6CCCC6)cc5)nn34)c2)c1 [XX-455] |
